According to patent publication US5374623A, “Cysteine protease inhibitors effective for in vivo use” (Prototek, Inc., priority 1992, dated 1994):

Legend:
[1] = system: DBA/Lac mice injected with type II chick collagen; test: Type II collagen arthritis in mice, oral 10 mg/kg/day (Example 13); format: in vivo; settings: gavage 10 mg/kg/day, day 21 to day 49
Experimental: DBA/Lac mice were injected with 200 μg of type II chick collagen emulsified in Freund's complete adjuvant on day 0 and on day 21. Mu-Phe-HPhe-O-Ph was suspended in an ethanol solution which was then diluted to 10% (aq) and administered by gavage at a dose of 10 mg/kg/day from day 21 until sacrifice at day 49. The severity of joint inflammation was evaluated grossly at seven day intervals beginning on day 21. The effect of oral administration of Mu-Phe-HPhe-O-Ph on the severity of bone lesions in adjuvant-induced arthritis wa determined by evaluating osseous mineralization, periostat proliferation, bone erosion, joint space narrowing and osseous fragmentation. All lesions were scored on a scale of 0 (normal architecture) to 3 (severe or marked changes). Values calculated were means values ±1 std. error of the mean. […] The effect of oral administration of Mu-Phe-HPhe-O-Ph on the histological aspects of adjuvant-induced arthritis was determined by evaluating inflammation, focul ulcers, tibiotarsal joint cartilage destruction, bone destruction and periosteal proliferation. Inflammation was scored on a scale of 0 (no inflammation) to 3 (severe) based on the extent of edema and cell infiltration. Focul ulcer cartilage destruction was measured as the percent of articular cartilage surfaces with focal destruction which exposed underlying subchondral bone. […]

experimental gingivitis = test: Experimental gingivitis in human subjects; format: in vivo; settings: twenty human subjects, inhibitor placed at test sites and sealed with Coe-pak for a week, blind, placebo control
Text: Treatment of Gingivitis with Mu-Phe-HPhe-O-Ph. The effect of the inhibitor on gingival inflammation was studied by investigating its ability to prevent the development of experimental gingivitis. Twenty human subjects with healthy gingiva and no periodontal disease were recruited. The subjects received oral hygiene instruction and scaling prior to baseline. The test sites were the mesibuccal crevices on the upper first and second molars and premolars (bicuspids). Acrylic shields were made to cover the gingival margins of these teeth and were worn during oral hygiene to prevent brushing of the test and control sites. During the test period of three weeks the subjects were told to brush only the lower teeth and upper anteriors and to ear the shields during brushing. The left side was used as the test side and the right was the control side in 10 subjects. The sides were reversed in the other 10 subjects so the subjects could act as their own controls. Thirty second GCF samples were taken prior to clinical measurements at baseline and at 1, 2, 3 and 4 weeks. These were assayed for cathepsins B and L-like activities. Clinical measurements of gingival index (GI), gingival bleeding index (GBI) and plaque index (PLI) were taken at test and control sites at zero, one, two, three and four weeks. […]

[2] = target: Soluble extracts of P. falciparum (cysteine proteinase); test: Proteolytic activity of P. falciparum soluble extracts, substrate Z-Phe-Arg-AFC; format: biochemical; settings: read-out: IC50, proteolytic activity of P. falciparum extract
Experimental: Soluble extracts of P. falciparum and P. vinckei were prepared and proteolytic activity was assayed with fluorogenic peptide substrate Z-Phe-Arg-AFC. […] The concentrations at which activity was inhibited by 50% (IC50) was calculated.
Soluble extracts of P. falciparum and P. vinckei were prepared and proteolytic activity was assayed with fluorogenic peptide substrate Z-Phe-Arg-AFC. […] The concentration at which activity was inhibited by 50%. (IC50) was calculated.
Soluble extracts of P. falciparum and P. vinckei were prepared and proteolytic activity was assayed with fluorogenic peptide substrate Z-Phe-Arg-AFC. […] The concentration at which activity was inhibited by 50% (IC50) was calculated.
The concentration at which activity was inhibited by 50% (IC50) was calculated.

[3] = system: Soluble extracts of P. vinckei; test: Proteolytic activity of P. vinckei soluble extracts, substrate Z-Phe-Arg-AFC; format: biochemical; settings: read-out: IC50, proteolytic activity of P. vinckei extract
Experimental: (§1) Treatment of Malaria with Mu-Phe-HPhe-O-Ph. Soluble extracts of P. falciparum and P. vinckei were prepared and proteolytic activity was assayed with fluorogenic peptide substrate Z-Phe-Arg-AFC. The activity of control samples was compared with activities in the presence of multiple concentrations of Mu-Phe-HPhe-O-Ph. The concentrations at which activity was inhibited by 50% (IC50) was calculated.
as §1, with “with Mu-Leu-HPhe-O-Ph.” for “with Mu-Phe-HPhe-O-Ph.”, “of Mu-Leu-HPhe-O-Phe.” for “of Mu-Phe-HPhe-O-Ph.”, “The concentration” for “The concentrations”, “by 50%.” for “by 50%”
as §1, with “with Mu-Phe-Arg(NO2)-O-Ph.” for “with Mu-Phe-HPhe-O-Ph.”, “of Mu-Phe-Arg(NO2)-O-Ph.” for “of Mu-Phe-HPhe-O-Ph.”, “The concentration” for “The concentrations”
as §1, with “with Mu-Tyr(OCH3)2 -HPhe-O-Ph.” for “with Mu-Phe-HPhe-O-Ph.”, “samples as” for “samples was”, “of Mu-Tyr(OCH3)2 -HPhe-O-Ph.” for “of Mu-Phe-HPhe-O-Ph.”, “The concentration” for “The concentrations”

[4] = system: DBA/Lac mice injected with type II chick collagen; test: Type II collagen arthritis in mice, oral 3-25 mg/kg/day (Example 14); format: in vivo; settings: gavage 3 to 25 mg/kg/day in phosphate buffered saline, day 21 to day 35; scale 0-3
Experimental: DBA/Lac mice were injected with 200 μg of type II chick collagen emulsified in Complete Freund's Adjuvant on day 0 and on day 21. Mu-Phe-HPhe-O-Ph was suspended in phosphate buffered saline and administered by gavage from day 21 until sacrifice at day 35. Doses of between 3 mg/kg/day and 25 mg/kg/day were used, with the daily dosage being held constant over time for each test. The severity of joint inflammation was evaluated grossly at seven day intervals beginning on day 21. The effect of oral administration of Mu-Phe-HPhe-O-Ph on the severity of bone lesions in adjuvant-induced arthritis was determined by evaluating osseous mineralization, periostat proliferation, bone erosion, joint space narrowing and osseous fragmentation. All lesions were scored on a scale of 0 (normal architecture) to 3 (severe or marked changes). Values calculated were mean values ±1 std. error of the mean.

Structure (SMILES): O=C(O)Cc1ccccc1OCC(=O)[C@H](CCc1ccccc1)NC(=O)[C@H](Cc1ccccc1)NC(=O)N1CCOCC1 [Mu-Phe-HPhe-O-Ph, (4-morpholinylcarbonyl)-L-phenylalanyl-L-homophenylalanyl-(2-carboxymethyl)phenoxymethyl ketone]
- histological aspects values vs control animals ([1]; inflammation, focul ulcers, tibiotarsal joint cartilage destruction, bone destruction, periosteal proliferation): significantly (p<0.05) lower than the values of control animals
- bone lesion severity values vs control animals ([1]; osseous mineralization, periostat proliferation, bone erosion, joint space narrowing, osseous fragmentation, scale 0-3): significantly (p<0.05) lower than the values of control animals
- GI, GBI, PLI and cysteine proteinase levels at test vs control sites (experimental gingivitis): reduced all parameters tested at the test sites
- IC50 [2]: 3 nM
- IC50 [3]: 5.1 nM
- bone lesion severity values vs control animals [4]: significantly (p<0.05) lower than the values of control animals
